Test results taken from PMC6776562, “Inhibition of Rac1-dependent forgetting alleviates memory deficits in animal models of Alzheimer’s disease” (Protein & Cell, 2019).

Columns and labels:
Rac1 = Rac1 (Mus musculus, UniProt P63001); test: Rac1 activity (Rac1-GTP/total Rac1) in hippocampal tissue by PAK-PBD pull-down and Western blot after drug administration; assay type: in vivo, APP/PS1 mice; settings: APP/PS1 mice (eight-month-old); oral CS7171 50 mg/kg, CS7170 50 mg/kg, JKF-034 40 mg/kg once per day
Protocol: We first assayed Rac1 activity in hippocampal tissues from AD patients and healthy age-matched, non-demented controls (Detailed information is provided in Table 1). The levels of the guanosine triphosphate (GTP)-bound active form of Rac1 were measured using the p21-binding domain (PBD) pull-down assay. The GTP-bound active form of Rac1 was pulled down through the interactive p21-activated kinase (PAK) fragment using PAK-PBD beads and measured using a Western blot assay (Fig. 1A), as described in previous studies (Shuai et al., [2010]; Liu et al., [2016]) from our laboratory and studies conducted by other research groups (Sander et al., [1998]; Barnes et al., [2008]). The total amount of Rac1 and actin were also evaluated using the Western blot analyses (See MATERIALS AND METHODS). […] Since there were no significant differences in total Rac1 levels between the experimental and control groups (See representative Western blot in all relevant figures), the ratio of Rac1-GTP to total Rac1 was taken as a measure of Rac1 activity. […] Consistent with this observation, Rac1 activity was also elevated in the hippocampus of APP/PS1 mice at different age (Fig. 1D). […] This increase was more pronounced in older flies (Fig. S1F).
Mice were treated with EHop-016 (10 mg/kg), CS7170 (50 mg/kg), CS7171 (50 mg/kg), and JKF-034 (40 mg/kg). These drugs were dissolved in saline (0.9% NaCl) containing 0.5% Tween-80 (Sigma P4780). Each mouse received 200 μL of the solution by intragastric administration once per day (administered at 9:00 am). The drug administration was started seven days before the beginning of the Morris water maze (MWM) task and was continued until the end of the assay. All control groups were fed with vehicle solution.
(§1) The hippocampal tissues from human subjects and mice were harvested and stored in a liquid nitrogen tank for biochemical assay. The tissues were homogenized in cold lysis buffer (Merck-Millipore, 20-168). The insoluble debris were removed after centrifugation at 13,000 rpm (for 10 min, at 4 °C). For GTP-bound Rac/Cdc42, lysates were incubated with GST-tagged PAK (p21-activated kinase)-PBD agarose beads (Cytoskeleton, PAK02) overnight at 4 °C. On the second day, the beads were washed three times with lysis buffer before subjecting them to SDS-PAGE (15%) and transferring them onto nitrocellulose membranes (Millipore, HATF00010). The membranes were incubated with primary antibodies (for Rac1: BD Transduction Laboratories, #610650, 1:2,000 dilution; for Cdc42, Santa Cruz Biotechnology, lot No. sc-8401, 1:500 dilution) overnight at 4 °C and with HRP-conjugated goat anti-mouse IgG (Cell Signaling Technology, #7076) for 1 h at room temperature. Intensities of the detected bands were analyzed using ImageJ software (National Institutes of Health). The total amount of Rac1 in the lysate was detected using a routine Western blot procedure. RhoA-GTP levels were measured by using the Rho-GTP monoclonal antibody (New East, lot No. 26904, Dilution: 1:1,000). Information regarding the other antibodies used is as follows: anti-RhoA (67B9), Cell Signaling, lot No. #2117, dilution: 1:1,000; anti-Actin, Clone C4, Millipore, lot No. #3018859, dilution: 1:2,000; anti-Amyloid 1-42 6E10, BioLegend, lot No. 803001, dilution: 1:1,000; anti-Phospho-PAK1 (Ser144)/PAK2 (Ser141), Cell Signaling, lot No. #2606, dilution: 1:1,000.

[1] = In vitro metabolic stability in liver microsomes (species not separated); assay type: in vitro ADME, human, monkey, and mouse; settings: all species of Table 4
Protocol: Measurements of metabolic stability can be performed with liver microsomes, which are known to contain the major drug-metabolizing enzymes and UDP-glucuronosyltransferase (Baranczewski et al., [2006]). The in vitro metabolic stability levels of CS7171 and JKF-034 were measured using human, monkey, and mouse liver microsomes. The metabolic half-time (T1/2) and intrinsic clearance (Clint) were assayed using LC-MS analysis. Ketanserin is a potent, orally effective antagonist of endogenous serotonin. Its pharmacological profile is well studied (Brogden and Sorkin, [1990]). In this study, we used ketanserin as a control. If the T1/2 of the tested compound was 30–120 min, the compound was considered to show moderate metabolism in liver microsomes. If the T1/2 value was less than 30 min, the compound was considered to be susceptible to metabolism in liver microsomes.

Aβ42 = Aβ42 level by Western blot (6E10 antibody) after drug administration; assay type: in vivo, APP/PS1 mice; settings: for level of Aβ42 monomer: 7-month-old APP/PS1 mice, two weeks of P.O administration
Protocol: as §1, with “([…])/PAK2 ([…]),” for “(Ser144)/PAK2 (Ser141),”, “1:1,000. page 2: A Representative […] blot of AE42 detected by AE42 monoclonal antibody (6E10) after two weeks of administration (P.O) of CS7171 and JKF-034 in 7-month-old APP/PS1 mice. B The level of AE42 monomer was decreased by JKF-034. […] D Representative […] blot of total RhoA, total Cdc42, RhoA-GTP, and Cdc42-GTP after two weeks of drug administration (P.O) of CS7171 and JKF-034 in 7-month-old APP/PS1 mice. […] Data information: All values are expressed as mean r SEM.” for “1:1,000.”

hippocampal Rac1 activity (Rac1-GTP/total Rac1) (Rac1) | T1/2 in liver microsomes [1] | SMILES | level of Aβ42 monomer (Aβ42) | Aβ42 accumulation (Aβ42; APP/PS1 mice, Fig. S4A–C)
inhibited Rac1 activity | less than 30 min | O=S(=O)(c1ccccc1)N1CCN(Cc2ccccc2)CC1 [JKF-034] | decreased | reduction
inhibited hippocampal Rac1 activity | less than 30 min | O=C1NN(c2ccc(Cl)c(Cl)c2)C(=O)C1=Cc1ccc(O)c(N(O)O)c1 [CS7171] | did not aff ect | 
